Assay results from patent publication EP0054589B1, “Organic phosphoric acid ester derivatives, a process for preparing the same and insecticidal, miticidal or nematocidal compositions containing the same” (priority 1980, dated 1982).
Like-named read-outs stand apart in the source and are kept apart here.

Key:
tobacco cutworm [1] = experiment: Insecticidal effect on tobacco cutworm (cabbage leaf dip); type: in vivo, Prodenia litura; settings: after 48 hours, 25°C
Outline: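 Cabbage leaves dipped in water-diluted emulsifiable concentrate (two formulations, tests A and B) and air-dried were fed to 3rd-instar tobacco cutworm larvae at 25°C. Percent mortality scored after 48 hours; 3 replicates of 30 insects per compound.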

tobacco cutworm [2] = experiment: Long-lasting insecticidal effect on tobacco cutworm (sprayed cabbage plantlet); type: in vivo, Prodenia litura; settings: concentration 500 (unit not given), mortality after 48 hours; for Percent Mortality After Application 3rd Day: leaves cut on 3rd day; for Percent Mortality After Application 5th Day: leaves cut on 5th day; for Percent Mortality After Application 7th Day: leaves cut on 7th day; for Percent Mortality After Application 10th Day: leaves cut on 10th day; for Percent Mortality After Application 15th Day: leaves cut on 15th day
Outline: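 Cabbage plantlets sprayed with water-diluted emulsifiable concentrate and held in a greenhouse; leaves cut on days 3, 5, 7, 10 and 15 and fed to 3rd-instar larvae at 25°C. Percent mortality scored after 48 h; 3 replicates, 30 insects each.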

diamond back moth = experiment: Insecticidal effect on diamond-back moth (cabbage leaf dip); type: in vivo, Plutella xylostella; settings: 100 ppm, after 72 hours, 25°C
Experimental: (§1) (A) An emulsifiable concentrate prepared as described in Formulation Example 1 was diluted with water to a predetermined concentration and leaves of a cabbage were dipped into the dilute emulsion for 10 seconds followed by drying in air, and charged in a 60 ml volume cup made of vinyl chloride resin. Then, thirty 3rd-instar larvae of diamond back moth were put in each cup, and the cups were kept at 25°C. After 72 hours, percent mortality was assessed and the test was replicated 3 times for each treatment.
as §1, with “(B) An” for “(A) An”, “Example 4” for “Example 1”

apple leaf miner = experiment: Insecticidal effect on apple leaf miner (sprayed apple seedling); type: in vivo, Lithocolletis ringoniella; settings: Phyllonorycter ringoniella, 336 h, 500 ppm, fourteen days after spraying
Experimental: (§2) (A) A dilute water suspension of a wettable powder prepared as described in Formulation Example 5 was sufficiently sprayed using a spray-gun on a seedling of an apple tree planted in a bisque flower pot to which plant larvae of apple leaf miner just after hatching were parasitic. Thereafter the pots were placed in a green house. Fourteen days after the spraying, bores made by larvae were broken and percent mortality was assessed for all the leaves of each seedling. Three pots were used for each treatment.
as §2, with “(B)” for “(A)”, “7” for “5”

egg plant = experiment: Phytotoxicity on various crops; type: in vivo; design: key: Symbol — indicates that no toxicity was observed; settings: 500 ppm sprayed; checked visually after 10 days
Outline: (§3)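 EC diluted to 500 ppm a.i., sprayed generously by gun; greenhouse, 10 d; visual phytotoxicity check; triplicate.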

Cabbage = experiment: Phytotoxicity on various crops; type: in vivo; design: key: Symbol — indicates that no toxicity was observed; settings: 500 ppm sprayed; checked visually after 10 days
Outline: as §3

Kidney Bean = experiment: Phytotoxicity on various crops; type: in vivo; design: key: Symbol — indicates that no toxicity was observed; settings: 500 ppm sprayed; checked visually after 10 days
Outline: as §3

Green Pepper = experiment: Phytotoxicity on various crops; type: in vivo; design: key: Symbol — indicates that no toxicity was observed; settings: 500 ppm sprayed; checked visually after 10 days
Outline: as §3

Tomato = experiment: Phytotoxicity on various crops; type: in vivo; design: key: Symbol — indicates that no toxicity was observed; settings: 500 ppm sprayed; checked visually after 10 days
Outline: as §3

Cotton = experiment: Phytotoxicity on various crops; type: in vivo; design: key: Symbol — indicates that no toxicity was observed; settings: 500 ppm sprayed; checked visually after 10 days
Outline: as §3

Cucumber = experiment: Phytotoxicity on various crops; type: in vivo; design: key: Symbol — indicates that no toxicity was observed; settings: 500 ppm sprayed; checked visually after 10 days
Outline: as §3

Apple = experiment: Phytotoxicity on various crops; type: in vivo; design: key: Symbol — indicates that no toxicity was observed; settings: 500 ppm sprayed; checked visually after 10 days
Outline: as §3

Tea = experiment: Phytotoxicity on various crops; type: in vivo; design: key: Symbol — indicates that no toxicity was observed; settings: 500 ppm sprayed; checked visually after 10 days
Outline: as §3

Rice = experiment: Phytotoxicity on various crops; type: in vivo; design: key: Symbol — indicates that no toxicity was observed; settings: 500 ppm sprayed; checked visually after 10 days
Outline: as §3

Beet = experiment: Phytotoxicity on various crops; type: in vivo; design: key: Symbol — indicates that no toxicity was observed; settings: 500 ppm sprayed; checked visually after 10 days
Outline: as §3

smaller tea tortrix = experiment: Insecticidal effect on smaller tea tortrix (apple leaf dip); type: in vivo; settings: Adoxophyes orana, foliar; Table 9; 100 ppm; after 72 hours, 25°C; wettable powder as Formulation Example 5; read-out: Percent Mortality
Experimental: Leaves of an apple tree were dipped into a dilute water suspension of a wettable powder prepared as described in Formulation Example 5. After drying in air, the leaves were charged in a 60 ml volume cup made of vinyl chloride resin, and […] 3rd-instar larvae of smaller tea tortrix were put in each cup. The cups were capped and kept at 25°C. After 72 hours, the number of the surviving insects and the dead insects were recorded to determine percent mortality. In each treatment, 3 cups and 30 insects were used in total.

rice stem borer = experiment: Insecticidal effect on rice stem borer, 3rd-instar larvae (rice seedling dip); type: in vivo, Chilo suppressalis; settings: after 72 hours, 25°C
Outline: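 Wettable-powder formulations were diluted in water to set concentrations, and rice seedlings were dipped in them. Ten 3rd-instar larvae were placed per capped cup with the treated seedlings and held at 25°C.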

[3] = Table 3, 500 ppm, emulsifiable concentrate as Formulation Example 1
[4] = Table 7, emulsifiable concentrate as Formulation Example 1
[5] = Table 10, wettable powder as Formulation Example 5, read-out: Percent Morality (%)
[6] = Table 1, 100 ppm, wettable powder as Formulation Example 5
[7] = Table 1, 500 ppm, wettable powder as Formulation Example 5
[8] = Table 4, 100 ppm, emulsifiable concentrate as Formulation Example 3
[9] = Table 8, emulsifiable concentrate as Formulation Example 4
[10] = Table 2, 100 ppm, wettable powder as Formulation Example 7

Compound | Percent Mortality (%) (tobacco cutworm [1]; [3]) | Percent Mortality (%) (diamond back moth; [4]) | mortality at 500 ppm (apple leaf miner; [5]) [%] | Phytotoxicity: Egg Plant (egg plant) | Phytotoxicity: Cabbage (Cabbage) | Phytotoxicity: Kidney Bean (Kidney Bean) | Phytotoxicity: Green Pepper (Green Pepper) | Phytotoxicity: Tomato (Tomato) | Phytotoxicity: Cotton (Cotton) | Phytotoxicity: Cucumber (Cucumber) | Phytotoxicity: Apple (Apple) | Phytotoxicity: Tea (Tea) | Phytotoxicity: Rice (Rice) | Phytotoxicity: Beet (Beet) | mortality at 100 ppm (smaller tea tortrix) [%] | Percent Mortality (%) (rice stem borer; [6]) | Percent Mortality (%) (rice stem borer; [7]) | Percent Mortality (%) (tobacco cutworm [1]; [8]) | Percent Mortality (%) (diamond back moth; [9]) | Percent Mortality (%) (rice stem borer; [10]) | also measured
CCC(C)SP(=O)(OC)Oc1ccc2c(c1)OC(C)=CC2(C)C (centres unmarked) [Compound No. 16, O-methyl-S-sec-butyl-O-(2,4,4-trimethyl-1,4-benzopyran-7-yi) phosphorothioate] | 100 | 100 | 100 | — | — | — | — | — | — | — | — | — | — | — | 100 | 100 | 100 |  |  |  | Percent Mortality After Application 3rd Day (tobacco cutworm [2]; Table 5): 100%; Percent Mortality After Application 5th Day (tobacco cutworm [2]; Table 5): 100%; Percent Mortality After Application 7th Day (tobacco cutworm [2]; Table 5): 100%; Percent Mortality After Application 10th Day (tobacco cutworm [2]; Table 5): 100%; Percent Mortality After Application 15th Day (tobacco cutworm [2]; Table 5): 100%
CCOP(=O)(Oc1ccc2c(c1)OC(C)(C)C=C2C)SC(C)CC (centres unmarked) [Compound No. 18] | 100 |  | 100 | — | — | — | — | — | — | — | — | — | — | — | 100 | 100 | 100 | 100 | 83.3 | 100 | 
CCCSP(=O)(OCC)Oc1ccc2c(c1)OC(C)CC2(C)C (centres unmarked) [compound 17] | 100 | 100 |  | — | — | — | — | — | — | — | — | — | — | — | 100 | 100 | 100 | 100 | 100 | 100 | Percent Mortality After Application 3rd Day (tobacco cutworm [2]; Table 5): 100%; Percent Mortality After Application 5th Day (tobacco cutworm [2]; Table 5): 100%; Percent Mortality After Application 7th Day (tobacco cutworm [2]; Table 5): 100%; Percent Mortality After Application 10th Day (tobacco cutworm [2]; Table 5): 100%; Percent Mortality After Application 15th Day (tobacco cutworm [2]; Table 5): 53.3%; Percent Mortality After Application 3rd Day (tobacco cutworm [2]; Table 6): 100%; Percent Mortality After Application 5th Day (tobacco cutworm [2]; Table 6): 100%; Percent Mortality After Application 7th Day (tobacco cutworm [2]; Table 6): 100%; Percent Mortality After Application 10th Day (tobacco cutworm [2]; Table 6): 93.3%; Percent Mortality After Application 15th Day (tobacco cutworm [2]; Table 6): 30%; Percent Mortality After Application Immediately after Application (tobacco cutworm [2]; Table 6): 100%
CCOP(=O)(Oc1cccc2c1C(C)=CC(C)(C)O2)SC(C)CC (centres unmarked) [compound 23] | 100 | 100 | 100 | — | — | — | — | — | — | — | — | — | — | — | 100 | 100 | 100 | 100 | 100 | 100 | mortality at 500 ppm (apple leaf miner; Table 11, wettable powder as Formulation Example 7, read-out: Percent Mortality (%)): 100%
